Measured values published in ChEMBL document CHEMBL1153715, “An antimicrobial guanidine-bearing sesterterpene from the cultured cyanobacterium Scytonema sp” (J Nat Prod, 2009).
Converted amounts (≈) assume the structure as drawn.

Assays:
[1] = tested on: Mycobacterium tuberculosis; experiment: Antitubercular activity against Mycobacterium tuberculosis H37Rv after 7 days by microplate alamar blue assay; assay type: functional; details: 168 h
Candida albicans = experiment: Antifungal activity against Candida albicans by broth microdilution method; assay type: functional
Escherichia coli = experiment: Antibacterial activity against Escherichia coli by broth microdilution method; assay type: functional
Staphylococcus aureus = experiment: Antibacterial activity against Staphylococcus aureus by broth microdilution method; assay type: functional
Bacillus anthracis = experiment: Antibacterial activity against Bacillus anthracis after 18 hrs by broth microdilution method; assay type: functional
Vero = experiment: Cytotoxicity against african green monkey Vero cells by cell Titer_Glo assay; assay type: cell-based; details: Chlorocebus sabaeus

## C=C1CC[C@@H]2[C@](C)(CC[C@H]3[C@@]2(C)CC[C@H]2C(C)(C)CC[C@@H](O)[C@@]23C)[C@H]1CNC(=N)N [SCYTOSCALAROL]
[1]
  MIC: 110 µM (≈ 45.7 µg/mL)
Candida albicans
  MIC: 4 µM (≈ 1.66 µg/mL)
Escherichia coli
  MIC: 30 µM (≈ 12.5 µg/mL)
Staphylococcus aureus
  MIC: 2 µM (≈ 0.831 µg/mL)
Bacillus anthracis
  MIC: 6 µM (≈ 2.49 µg/mL)
Vero
  IC50: 135 µM
